# From PubChem BioAssay AID328 (DTP/NCI, 2004)
# Values joined by “and” are separate entries in the source; they are usually repeats but may differ in a detail not shown here. Equal entries are not always repeated. Inconclusive results and toxic doses are left out.
# System: BDF1 mice, P388 leukemia ip, median survival T/C
# Assay: NCI In Vivo Anticancer Drug Screen. Data for tumor model P388 Leukemia (intraperitoneal) in B6D2F1 (BDF1) mice
# Settings: endpoint: median survival time, higher = longer survival
# Summary of the method: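 Mice carrying the transplantable tumour receive compound or vehicle. Survival is followed in each arm, and the treated measure is divided by the vehicle measure.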
# [1] = dose: 50.0 mg/kg/injection, schedule: Q01DX009 (ip), vehicle: saline with Tween-80
# [2] = dose: 100.0 mg/kg/injection, schedule: Q04DX003 (ip), vehicle: saline sonified
# [3] = dose: 200.0 mg/kg/injection, schedule: Q04DX003 (ip), vehicle: saline sonified
# [4] = dose: 200.0 mg/kg/injection, schedule: Q04DX003 (ip), vehicle: saline with Tween-80
# [5] = dose: 3.12 mg/kg/injection, schedule: Q01DX009 (ip), vehicle: water
# [6] = dose: 6.25 mg/kg/injection, schedule: Q01DX009 (ip), vehicle: water
# [7] = dose: 6.25 mg/kg/injection, schedule: Q04DX003 (ip), vehicle: water
# [8] = dose: 12.5 mg/kg/injection, schedule: Q04DX003 (ip), vehicle: water
# [9] = dose: 25.0 mg/kg/injection, schedule: Q01DX009 (ip), vehicle: water
# [10] = dose: 25.0 mg/kg/injection, schedule: Q04DX003 (ip), vehicle: water
# [11] = dose: 100.0 mg/kg/injection, schedule: Q01DX009 (ip), vehicle: saline with Tween-80
# [12] = dose: 100.0 mg/kg/injection, schedule: Q04DX003 (ip), vehicle: saline with Tween-80
# [13] = dose: 400.0 mg/kg/injection, schedule: Q04DX003 (ip), vehicle: saline with Tween-80
# [14] = dose: 25.0 mg/kg/injection, schedule: Q01DX009 (ip), vehicle: Klucel (hydroxypropylcellulose) (HPC)
# [15] = dose: 50.0 mg/kg/injection, schedule: Q01DX009 (ip), vehicle: Klucel (hydroxypropylcellulose) (HPC)
structure (smiles),measurement,setting,value
COc1cc([C@@H]2c3cc4c(cc3[C@H](OC(C)=O)[C@H]3COC(=O)[C@@H]23)OCO4)cc(OC)c1OC,T/C,"dose: 25.0 mg/kg/injection, schedule: Q01DX010 (ip), vehicle: carboxymethylcellulose (CMC)",123 % of control
same,T/C,[1],172 % of control
same,T/C,"dose: 50.0 mg/kg/injection, schedule: Q01DX010 (ip), vehicle: carboxymethylcellulose (CMC)",95 % of control
same,T/C,"dose: 50.0 mg/kg/injection, schedule: Q04DX003 (ip), vehicle: saline sonified",100 % of control
same,T/C,"dose: 66.0 mg/kg/injection, schedule: Q04DX003 (ip), vehicle: saline sonified",88 % of control
same,T/C,"dose: 88.0 mg/kg/injection, schedule: Q04DX003 (ip), vehicle: saline with Tween-80",113 % of control
same,T/C,[2],100 % of control
same,T/C,"dose: 132.0 mg/kg/injection, schedule: Q04DX003 (ip), vehicle: saline with Tween-80",150 % of control
same,T/C,"dose: 150.0 mg/kg/injection, schedule: Q04DX003 (ip), vehicle: saline sonified",100 % of control
same,T/C,[3],170 % of control
same,T/C,[4],160 % of control
OCC1OC(OC2(CO)OC(CO)C(O)C2O)C(O)C(O)C1O (stereo not given),T/C,"dose: 11.0 mg/kg/injection, schedule: Q01DX009 (ip), vehicle: saline",118 % of control
same,T/C,"dose: 22.0 mg/kg/injection, schedule: Q01DX009 (ip), vehicle: saline",113 % of control and 115 % of control
same,T/C,"dose: 67.0 mg/kg/injection, schedule: Q01DX009 (ip), vehicle: saline",115 % of control and 122 % of control
same,T/C,"dose: 100.0 mg/kg/injection, schedule: Q01DX010 (ip), vehicle: saline",115 % of control
same,T/C,"dose: 200.0 mg/kg/injection, schedule: Q01DX010 (ip), vehicle: saline",103 % of control
same,T/C,"dose: 400.0 mg/kg/injection, schedule: Q01DX010 (ip), vehicle: saline",100 % of control
same,T/C,"dose: 600.0 mg/kg/injection, schedule: Q01DX010 (ip), vehicle: saline",115 % of control
C[n+]1cc2c3ccccc3c(N)cc2c2ccccc21,T/C,[5],157 % of control
same,T/C,[6],185 % of control
same,T/C,[7],102 % of control
same,T/C,[8],116 % of control
same,T/C,[9],91 % of control
same,T/C,[10],98 % of control
same,T/C,"dose: 100.0 mg/kg/injection, schedule: Q04DX003 (ip), vehicle: water",154 % of control
same,T/C,"dose: 150.0 mg/kg/injection, schedule: Q04DX003 (ip), vehicle: water",203 % of control
COc1cc(O)c2c(c1)Cc1cc(C)cc(O)c1C2=O,T/C,"dose: 6.25 mg/kg/injection, schedule: Q01DX009 (ip), vehicle: saline with Tween-80",101 % of control
same,T/C,"dose: 12.5 mg/kg/injection, schedule: Q01DX009 (ip), vehicle: saline with Tween-80",109 % of control
CS(=O)(=O)N(c1ccccc1[N+](=O)[O-])S(C)(=O)=O,T/C,[11],109 % of control
same,T/C,[12],87 % of control
same,T/C,"dose: 200.0 mg/kg/injection, schedule: Q01DX009 (ip), vehicle: saline with Tween-80",100 % of control
same,T/C,[4],100 % of control
same,T/C,"dose: 400.0 mg/kg/injection, schedule: Q01DX009 (ip), vehicle: saline with Tween-80",104 % of control
same,T/C,[13],104 % of control
CCCCCCCCCCCCCCCCCCCCCCCCCCCC(=O)OCC(O)CO (stereo not given),T/C,"dose: 0.25 mg/kg/injection, schedule: Q01DX009 (ip), vehicle: saline + alcohol",110 % of control
same,T/C,"dose: 1.0 mg/kg/injection, schedule: Q01DX009 (ip), vehicle: saline + alcohol",105 % of control
CN(C)S(=O)(=O)c1ccccc1C(O)(c1ccccc1)c1ccccc1,T/C,[12],99 % of control
same,T/C,[4],116 % of control
same,T/C,[13],91 % of control
CC(=O)C(C#N)c1ccccc1 (stereo not given),T/C,"dose: 12.5 mg/kg/injection, schedule: Q01DX009 (ip), vehicle: Klucel (hydroxypropylcellulose) (HPC)",118 % of control
same,T/C,[14],109 % of control
same,T/C,[15],90 % of control
CN(CCCl)Cc1ccccc1,T/C,"dose: 0.04 mg/kg/injection, schedule: Q01DX009 (ip), vehicle: saline",95 % of control
same,T/C,"dose: 0.07 mg/kg/injection, schedule: Q01DX009 (ip), vehicle: saline",87 % of control
same,T/C,"dose: 22.0 mg/kg/injection, schedule: Q04DX003 (ip), vehicle: saline",104 % of control
same,T/C,"dose: 25.0 mg/kg/injection, schedule: Q04DX003 (ip), vehicle: saline",109 % of control
same,T/C,"dose: 33.0 mg/kg/injection, schedule: Q01DX009 (ip), vehicle: saline sonified",116 % of control
same,T/C,"dose: 35.0 mg/kg/injection, schedule: Q04DX003 (ip), vehicle: saline",109 % of control
same,T/C,"dose: 50.0 mg/kg/injection, schedule: Q01DX009 (ip), vehicle: saline sonified",120 % of control
same,T/C,"dose: 50.0 mg/kg/injection, schedule: Q01DX009 (ip), vehicle: saline",210 % of control
same,T/C,"dose: 75.0 mg/kg/injection, schedule: Q01DX009 (ip), vehicle: saline sonified",195 % of control
same,T/C,"dose: 100.0 mg/kg/injection, schedule: Q01DX009 (ip), vehicle: saline",155 % of control
same,T/C,"dose: 150.0 mg/kg/injection, schedule: Q04DX003 (ip), vehicle: saline",175 % of control
COc1ccc(NC(=O)CCC(=O)O)cc1,T/C,[12],92 % of control
same,T/C,[4],88 % of control
same,T/C,[13],88 % of control
NC(Cc1c[nH]c2ccccc12)C(=O)OCc1ccccc1 (stereo not given),T/C,[5],106 % of control
same,T/C,"dose: 3.12 mg/kg/injection, schedule: Q04DX003 (ip), vehicle: water",100 % of control
same,T/C,[6],101 % of control
same,T/C,[7],88 % of control
same,T/C,"dose: 12.5 mg/kg/injection, schedule: Q01DX009 (ip), vehicle: water",93 % of control
same,T/C,[8],123 % of control
same,T/C,[9],97 % of control
same,T/C,[10],108 % of control
same,T/C,"dose: 50.0 mg/kg/injection, schedule: Q01DX009 (ip), vehicle: water",92 % of control
same,T/C,"dose: 50.0 mg/kg/injection, schedule: Q04DX003 (ip), vehicle: water",97 % of control
same,T/C,"dose: 100.0 mg/kg/injection, schedule: Q01DX009 (ip), vehicle: water",101 % of control
same,T/C,"dose: 200.0 mg/kg/injection, schedule: Q01DX009 (ip), vehicle: water",110 % of control
CC(C)C(=O)Nc1ccc(Cl)cc1,T/C,"dose: 100.0 mg/kg/injection, schedule: Q01DX001 (ip), vehicle: saline with Tween-80",100 % of control
same,T/C,"dose: 200.0 mg/kg/injection, schedule: Q01DX001 (ip), vehicle: saline with Tween-80",100 % of control
same,T/C,"dose: 400.0 mg/kg/injection, schedule: Q01DX001 (ip), vehicle: saline with Tween-80",100 % of control
CCCCCCCCCCCCCCOc1ccc(C=O)cc1OC,T/C,"dose: 100.0 mg/kg/injection, schedule: Q01DX001 (ip), vehicle: Klucel (hydroxypropylcellulose) (HPC)",100 % of control
same,T/C,"dose: 200.0 mg/kg/injection, schedule: Q01DX001 (ip), vehicle: Klucel (hydroxypropylcellulose) (HPC)",100 % of control
same,T/C,"dose: 400.0 mg/kg/injection, schedule: Q01DX001 (ip), vehicle: Klucel (hydroxypropylcellulose) (HPC)",100 % of control
COc1cc2c(cc1O)C(=O)CCC(C(=O)O)=C2,T/C,"dose: 25.0 mg/kg/injection, schedule: Q01DX009 (ip), vehicle: saline with Tween-80",106 % of control
same,T/C,[1],111 % of control
same,T/C,[11],101 % of control
COC(=O)C12CCc3cc(OC)ccc3C1=CC(=O)C2 (stereo not given),T/C,[2],100 % of control
same,T/C,[3],95 % of control
O=NN(CCCl)C(=O)Nc1cccc(O)c1,T/C,"dose: 22.0 mg/kg/injection, schedule: Q04DX003 (ip), vehicle: Klucel (hydroxypropylcellulose) (HPC)",190 % of control
same,T/C,[14],215 % of control
same,T/C,"dose: 33.0 mg/kg/injection, schedule: Q04DX003 (ip), vehicle: Klucel (hydroxypropylcellulose) (HPC)",186 % of control
same,T/C,"dose: 35.0 mg/kg/injection, schedule: Q01DX009 (ip), vehicle: Klucel (hydroxypropylcellulose) (HPC)",100 % of control
same,T/C,[15],88 % of control and 215 % of control
same,T/C,"dose: 50.0 mg/kg/injection, schedule: Q04DX003 (ip), vehicle: Klucel (hydroxypropylcellulose) (HPC)",186 % of control
same,T/C,"dose: 66.0 mg/kg/injection, schedule: Q04DX003 (ip), vehicle: saline",222 % of control
same,T/C,"dose: 75.0 mg/kg/injection, schedule: Q01DX009 (ip), vehicle: Klucel (hydroxypropylcellulose) (HPC)",158 % of control
same,T/C,"dose: 100.0 mg/kg/injection, schedule: Q01DX009 (ip), vehicle: Klucel (hydroxypropylcellulose) (HPC)",105 % of control
same,T/C,"dose: 100.0 mg/kg/injection, schedule: Q04DX003 (ip), vehicle: Klucel (hydroxypropylcellulose) (HPC)",222 % of control
same,T/C,"dose: 100.0 mg/kg/injection, schedule: Q04DX003 (ip), vehicle: saline",272 % of control
